Measured values taken from publication PMC4125815, “Crystal structure of tRNA m^1A58 methyltransferase TrmI from Aquifex aeolicus in complex with S-adenosyl-L-methionine” (Journal of Structural and Functional Genomics, 2014).

Molecular target: T1, A. aeolicus TrmI (Aquifex aeolicus, UniProt O66653)
T1 construct: gene aq_311
Experiment: X-ray crystal structure of the complex, […] Å
Type: binding
Conditions: co-crystallised with 2 mM AdoMet, pH 8.4, 20 °C; methyl donor site in C-terminal domain, 4 AdoMet per tetramer

T1 sequence (O66653 1-248): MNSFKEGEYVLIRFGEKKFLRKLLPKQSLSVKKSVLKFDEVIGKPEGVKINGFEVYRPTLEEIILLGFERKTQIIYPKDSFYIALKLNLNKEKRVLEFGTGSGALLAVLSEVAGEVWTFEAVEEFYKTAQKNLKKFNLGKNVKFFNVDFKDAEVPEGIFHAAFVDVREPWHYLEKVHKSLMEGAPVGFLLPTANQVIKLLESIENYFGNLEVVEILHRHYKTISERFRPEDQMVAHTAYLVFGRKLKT

C[S+](CC[C@H](N)C(=O)O)C[C@H]1O[C@@H](n2cnc3c(N)ncnc32)[C@H](O)[C@@H]1O (stereo partly shown) [AdoMet]
X-ray crystal structure of the complex, 2.2 Å: The methyl donor AdoMet is bound in the C-terminal domain of the protein
